How the values were obtained:
[1] = In vitro penetration and permeation via excised porcine mammary papilla, Franz diffusion cell (Example 1); format: in vitro ADME
Procedure: Drug penetration and permeation via mammary papillae was performed in a Franz diffusion cell using excised porcine mammary papilla. […] The transport studies were performed at time points for 6 and 48 hours.
In a separate study to evaluate the drug retention and disposition, the treatment was removed after 6 hours and the study was continued until the 48 hour mark. Samples were withdrawn from the receptor compartment at different time points. At the end of study, the mammary papilla was cut to 2 mm thick cylindrical sections from the top to the base of the tissue and was digested using a tissue solubilizer. The drug concentrations were determined by liquid scintillation counting.
Methods for the preparation of porcine mammary papilla. Freshly excised strips of porcine mammary papilla (6-7 months old animals) were washed with deionized water followed by removal of subcutaneous fatty tissue using a scalpel. Keeping the mammary papilla in the center, 3 cm×3 cm sized specimens of the tissue were excised, subcutaneous fat tissue was removed, and the tissue was frozen at −20° C. until used for the drug penetration and permeation studies.
Breast tissue was mounted between the two compartments of a vertical Franz diffusion cell (FDC) with breast tissue sandwiched between donor and receptor compartments. A mammary papilla was set in upright position inside the donor compartment of Franz diffusion cell. […] Samples were withdrawn from the receptor at different time points for 48 hours to determine drug concentration by radioactive count. At the end of 48 hours, tissue samples were taken for drug content determination. […]
In a second study, the mammary papillae in Franz diffusion cells were treated with the drugs for 48 hours and the permeation was followed through 48 hours. This analysis provided information regarding any saturation from drug treatment for extended periods of time. […]
Extraction of drugs from the mammary papilla. At the end of permeation study, the mammary papilla was removed from Franz diffusion cell and thoroughly washed with deionized water and blotted dried. Approximately 2 mm thick sections of the tissue were taken using a scalpel. These sections were homogenized, the drug was extracted, and the drug concentration was determined by radioactive counts.

[2] = Transmammary permeation across human mammary papilla with and without removal of the keratin plug (Experiments 12-18); format: in vitro ADME; details: for lag time / cumulative amount permeated / Drug retention in tissue / Flux: value (SEM); for cumulative amount permeated: 48 hours; for Drug retention in tissue: end of 48 hours
From the text: Mammary papillae tissues were thawed. […] The drug solutions were spiked with radioactive substances. […] Receptor medium was PBS with 7.4 pH. […] Results may be seen in FIG. 37 and Table 13.
Mammary papillae tissues were thawed. […] The drug solutions were spiked with radioactive substances. […] Receptor medium was PBS with 7.4 pH. […] Results may be seen in FIG. 38 and Table 15.
Mammary papillae tissues were thawed. […] The drug solutions were spiked with radioactive substances. […] Receptor medium was PBS with 7.4 pH. […] Results may be seen in FIG. 39 and Table 17.
Mammary papillae tissues were thawed. […] The drug solutions were spiked with radioactive substances. […] Receptor medium was PBS with 7.4 pH. […] Results may be seen in FIG. 40.
Mammary papillae and skin tissues were thawed. […] The drug solutions were spiked with radioactive substances. […] Receptor medium was PBS with 7.4 pH. […] Results may be seen in FIG. 41 and Table 20.
Mammary papillae and skin tissues were thawed. […] The drug solutions were spiked with radioactive substances. […] Receptor medium was PBS with 7.4 pH. […] Results may be seen in FIG. 42 and Table 22.
Mammary papillae tissues were thawed. […] The drug solutions were spiked with radioactive substances. […] Receptor medium was PBS with 7.4 pH. […] Results may be seen in FIG. 43 and Table 24.

[3] = Permeation across human mammary areola vs human breast skin (Experiments 19-21); details: cadaver tissue; donor in 50:50 ethanol:water; 48 hours
Procedure: Mammary areolae and skin tissues were procured from a cadaver (Pacific Islander). […] The drug solutions were spiked with radioactive substances. Now 500 μl of the formulation was placed in the donor. Receptor medium was PBS with 7.4 pH. Three […] samples of donor were taken to determine DPM of donors. 200 μl samples were taken from the receptor at pre-determined time points. […] Results may be seen in FIG. 44.
Mammary areolae and skin tissues were procured from a cadaver (Pacific Islander). […] The drug solutions were spiked with radioactive substances. Now 500 μl of the formulation was placed in the donor. Receptor medium was PBS with 7.4 pH. Three 400 μl samples of donor were taken to determine DPM of donors. 200 μl samples were taken from the receptor at pre-determined time points. […] Results may be seen in FIG. 45.
Mammary areolae and skin tissues were procured from a cadaver (Pacific Islander). […] The drug solutions were spiked with radioactive substances. Now 500 μl of the formulation was placed in the donor. Receptor medium was PBS with 7.4 pH. Three 400 μl samples of donor were taken to determine DPM of donors. 200 μl samples were taken from the receptor at pre-determined time points. […] Results may be seen in FIG. 46.

[4] = excised porcine mammary papilla, saturated solution in ethanol:water (50:50), 48 h, mean ± SEM, n=3
[5] = porcine mammary papilla, end of 48 h, mean ± SEM, n=3
[6] = 5FU 20 mg/ml, human mammary papilla with keratin plug removal
[7] = 5FU 20 mg/ml, human mammary papilla without keratin plug removal

O=c1[nH]cc(F)c(=O)[nH]1 [5FU, 5-fluorouracil]
Lag time ([1]; excised porcine mammary papilla, Franz diffusion cell, saturated solution in ethanol:water (50:50), 48 h, mean ± SEM, n=3): 8.18 ± 0.79 h
Cumulative % permeated [1, 4]: 5.71 ± 0.06%
Flux × 10^3 [1, 4]: 38.46 ± 2.38 μM · cm^2 · hr^−1
Permeability coefficient × 10^3 [1, 4]: 0.25 ± 0.015 cm^2 · hr^−1
cumulative amount permeated [1, 4]: 4.38 ± 0.04 µM
Cumulative % retained [1, 5]: 4.94 ± 0.74%
Cumulative amount retained [1, 5]: 3.80 ± 0.56 µM
Drug extraction from 2 mm thick mammary papilla sections, Section A (tip) [1, 5]: 13.47 ± 1.35 µM/g
Drug extraction from 2 mm thick mammary papilla sections, Section B [1, 5]: 11.78 ± 1.69 µM/g
Drug extraction from 2 mm thick mammary papilla sections, Section C [1, 5]: 9.80 ± 1.44 µM/g
Drug extraction from 2 mm thick mammary papilla sections, Section D (base) [1, 5]: 5.84 ± 1.69 µM/g
Permeation across mammary papilla (in words) ([1]; porcine mammary papilla, treatment up to 48 hours): significant amount of 5FU passes through the mammary papilla
lag time ([2]; 5FU 20 mg/ml in 50:50 ethanol:water, human mammary papilla with keratin plug removal, n=3-4): 8.76 (1.46) hours
cumulative amount permeated [2, 6]: 5.06 (1.17) μmole
Drug retention in tissue [2, 6]: 7.30 (2.81) umole/g of tissue
Flux [2, 6]: 0.18 (0.05) μmole/cm^2/hour
cumulative amount permeated [2, 7]: 0.71 (0.08) μmole
Drug retention in tissue [2, 7]: 2.28 (0.04) umole/g of tissue
Flux [2, 7]: 0.03 (0.00) μmole/cm^2/hour
lag time [2, 7]: 17.96 (3.80) hours
Permeation profile via human vs porcine mammary papillae ([2]; after keratin plug removal, 48 hours (Experiment 15)): similar
Increase in permeation across the tissues upon removal of the keratin plugs ([2]; human mammary papilla): more than 7 fold
Permeability across human mammary areola compared with human breast skin [3]: lower than that across human breast skin

— patent US9220680B2, “Compositions and methods for localized drug delivery through mammary papillae” (South Dakota State University, priority 2012, dated 2015)
